Laboratory results taken from patent US10988434B2, “Fragrance mixture” (SYMRISE AG, priority 2016, dated 2021).

Test: Storage stability under drastic conditions
Assay type: physicochemical
Conditions: 60° C. and 5 bar pressure
Experimental: Example 15: Stability Studies
Mesaconic acid diethyl ester (MSDEE) was stored alone and as a component of various formulations for 24 and 72 hours respectively under drastic conditions at 60° C. and 5 bar pressure. The remaining amount of active substance was then determined.

Structure (SMILES): CCOC(=O)/C=C(\C)C(=O)OCC [Mesaconic acid diethyl ester, (E)-2-methyl-but-2-endicarboxylic acid diethyl ester]
- Storage stability: remaining amount of active substance (MSDEE) After 24 h (24 h): 98%
- Storage stability: remaining amount of active substance (MSDEE) After 72 h (72 h): 98%
